According to BindingDB's records for doi:10.1016/j.bmcl.2006.12.028 (Sapienza University of Rome, 2007):

Legend:
Histone deacetylase 2b = target: T1, Histone deacetylase 2b (Zea mays, UniProt Q94F81); assay: Inhibition of maize HD2 (mean)
T1 sequence (Q94F81 whole entry): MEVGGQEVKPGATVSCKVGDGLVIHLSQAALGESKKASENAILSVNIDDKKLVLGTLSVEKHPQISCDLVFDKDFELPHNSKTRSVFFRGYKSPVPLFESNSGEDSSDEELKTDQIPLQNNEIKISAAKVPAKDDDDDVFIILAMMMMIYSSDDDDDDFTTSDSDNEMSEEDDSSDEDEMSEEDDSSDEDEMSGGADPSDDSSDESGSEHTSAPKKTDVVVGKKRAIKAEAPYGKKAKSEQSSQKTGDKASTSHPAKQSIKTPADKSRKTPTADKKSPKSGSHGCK

Histone deacetylase 1 = Histone deacetylase 1 (Mus musculus, UniProt O09106); assay: Inhibition of mouse HDAC1 (mean)
Histone deacetylase = Histone deacetylase (Zea mays, UniProt Q9ZTP8); assay: Inhibition of maize HD1-B (mean)
[1] = target: Histone deacetylase HD1-A (Zea mays); assay: Inhibition of maize HD1-A (mean)

Sequence of Histone deacetylase (Q9ZTP8 whole entry): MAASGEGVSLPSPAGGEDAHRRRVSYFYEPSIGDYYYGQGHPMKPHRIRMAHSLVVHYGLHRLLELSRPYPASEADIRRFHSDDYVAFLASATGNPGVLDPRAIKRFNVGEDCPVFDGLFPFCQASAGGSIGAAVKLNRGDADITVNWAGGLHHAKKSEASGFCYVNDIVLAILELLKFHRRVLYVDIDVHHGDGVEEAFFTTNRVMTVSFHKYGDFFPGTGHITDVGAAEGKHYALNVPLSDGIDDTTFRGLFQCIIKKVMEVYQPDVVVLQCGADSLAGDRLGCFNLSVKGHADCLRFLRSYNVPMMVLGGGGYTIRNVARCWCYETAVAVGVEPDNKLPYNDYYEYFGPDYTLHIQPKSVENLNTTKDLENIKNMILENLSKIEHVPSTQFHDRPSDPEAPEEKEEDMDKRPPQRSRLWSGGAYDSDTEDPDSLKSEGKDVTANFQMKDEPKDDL
Sequence of Histone deacetylase 1 (O09106 whole entry): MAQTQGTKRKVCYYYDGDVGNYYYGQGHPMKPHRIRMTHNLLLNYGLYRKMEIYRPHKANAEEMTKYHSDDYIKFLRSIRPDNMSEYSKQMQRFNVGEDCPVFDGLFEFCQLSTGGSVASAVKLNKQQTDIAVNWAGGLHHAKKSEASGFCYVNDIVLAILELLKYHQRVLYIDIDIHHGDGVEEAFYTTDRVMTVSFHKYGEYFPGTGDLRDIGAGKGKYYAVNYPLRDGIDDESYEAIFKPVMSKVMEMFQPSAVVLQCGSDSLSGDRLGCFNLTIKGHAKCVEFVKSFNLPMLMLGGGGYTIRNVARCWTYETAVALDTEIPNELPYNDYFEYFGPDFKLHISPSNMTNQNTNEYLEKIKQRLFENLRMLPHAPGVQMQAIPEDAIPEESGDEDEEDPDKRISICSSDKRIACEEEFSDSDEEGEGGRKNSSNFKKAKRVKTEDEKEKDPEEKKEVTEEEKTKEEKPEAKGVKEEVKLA

Row | IC50 (Histone deacetylase 2b) [nM] | IC50 (Histone deacetylase 1) [nM] | IC50 (Histone deacetylase) [nM] | IC50 [1] [nM] | SMILES
1 | 17 | 36.7 | 11.3 | – | O=C(CCCCSc1nc(-c2cccc(Cl)c2)cc(=O)[nH]1)NO
2 | 17 | 50.9 | 11.3 | 2.83 | O=C(CCCCSc1nc(-c2ccc(Cl)cc2)cc(=O)[nH]1)NO
3 | 49.2 | – | – | – | O=C(CCCCCCC(=O)Nc1ccccc1)NO [Zolinza]
